Data as given in patent US4940789A, “10,11-dihydro-5-alkyl-12-substituted-10,5-(iminomethano)-5H-d ibenzo[a,d]cycloheptenes as neuroprotectant agents” (priority 1989, dated 1990).
Like-named read-outs stand apart in the source and are kept apart here.

Legend:
NMDA-induced lethality = NMDA-induced lethality in mice (survival; standard experimental test procedure); type: in vivo, male Swiss-albino mice (CD-1 strain); settings: for Percent of animals which survived at the dose indicated (NMDA-induced lethality): I.P.; for ED50: Mus musculus, 0.5 h; for ED50 / ED50 Inhibition of NMDA-Induced Lethality, I.P. (dose required to produce 50% survival rate): NMDA 195 mg/kg i.p., 30 min pretreatment; for IP/PO Ratio: ED50 inhibition of NMDA-induced lethality, I.P. over P.O.; for Relative potency, antagonism of NMDA-induced lethality vs ataxia (in words): traction reflex deficit model
Procedure: The mice were pretreated with the representative test compounds followed thirty minutes later with NMDA (195 mg/kg, i.p., the ED90 dose for generalized myoclonus). The mice were then observed for 30 minutes, noting the latency of onset of generalized myoclonus (uncontrollable hind leg scratching or limbs and/or torso muscle jerking with loss of righting reflex) and death. From the latter, the ED50 for survival is determined. In this standard experimental test procedure, the specific compounds tested and their activity, which representatively establish the activity for all the compounds herein, is presented in Table I as follows: […]

[1] = Traction reflex deficit (ataxia) in mice; settings: mouse, in vivo, ip, I.P., read-out: TD50 - Traction Reflex Deficit, I.P. (dose which produced the deficit in 50% of animals tested)
Excerpt: In fact, the separation between a compounds's NMDA-antagonist activity and ataxic activity (often expressed as an "efficacy ratio" of the ED50 's of these two activities) has been extensively used to evaluate its therapeutic usefulness versus its liabilities.
^@ As measured in mice. Defined as the dose which produced the defici

[2] = test system: high-affinity PCP binding site in the NMDA-associated ion channel; settings: result in words; cited from earlier work
[3] = result in words; cited from earlier work
[4] = test system: cell death in cerebral ischemia models; settings: result in words; cited from earlier work
[5] = ip, intraperitoneal injection, read-out: ED50 Inhibition of NMDA-Induced Lethality, I.P. (dose required to produce 50% survival rate)

Row | SMILES | ED50 (NMDA-induced lethality; [5]) | TD50 [1] | other results
1 | CC12CN(Cc3ccccn3)C(Cc3ccccc31)c1ccccc12 (stereo not shown) [Example 6, 10,11-Dihydro-5-methyl-12-(2-pyridinylmethyl)-10,5-(iminomethano)-5H-dibenzo[a,d]cycloheptene] |  |  | Percent of animals which survived at the dose indicated (NMDA-induced lethality) (NMDA-induced lethality; at 20 mg/kg): 66%
2 | CN(C)CCCN1CC2(C)c3ccccc3CC1c1ccccc12 (stereo not shown) [Example 5, 10,11-Dihydro-N,N,5-trimethyl-10,5-(iminomethano)-5H-dibenzo[a,d]cycloheptene-12-propanamine] |  |  | Percent of animals which survived at the dose indicated (NMDA-induced lethality) (NMDA-induced lethality; at 100 mg/g (so in the source)): 66%
3 | COc1ccc2c(c1)[C@]13CCCC[C@@H]1[C@H](C2)N(C)CC3 [Dextromethorphan, reference compound] | 21 mg/kg | 45 mg/kg | 
4 | CC(=O)N1CC2(C)c3ccccc3CC1c1ccccc12 (stereo not shown) [Example 11, 10,11-Dihydro-5-methyl-10,5-(iminomethano)-5H-dibenzo[a,d]cycloheptene-12-acetamide] |  |  | Percent of animals which survived at the dose indicated (NMDA-induced lethality) (NMDA-induced lethality; at 10 mg/kg): 10%
5 | C[C@]12N[C@H](Cc3ccccc31)c1ccccc12 [MK-801, reference compound] | 0.19 mg/kg | 0.17 mg/kg | IP/PO Ratio (NMDA-induced lethality): 0.58; ED50 (NMDA-induced lethality; oral administration, read-out: ED50 Inhibition of NMDA-Induced Lethality, P.O. (dose required to produce 50% survival rate)): 0.32 mg/kg; Relative potency, antagonism of NMDA-induced lethality vs ataxia (in words) (NMDA-induced lethality): no separation; Competition for the high-affinity PCP binding site [2]: competes for the high-affinity PCP binding site; Generalization for PCP in drug discrimination [3]: generalizes for PCP; Protection against cell death in cerebral ischemia models [4]: protects against cell death in cerebral ischemia models
6 | CC12CN(CCc3ccncc3)C(Cc3ccccc31)c1ccccc12 (stereo not shown) [Example 3, 10,11-Dihydro-5-methyl-12-[2-(4-pyridinyl)ethyl]10,5-(iminomethano)-5H-dibenzo[a,d]cycloheptene] | 18 mg/kg | 83 mg/kg | 
7 | CC(C)N1CC2(C)c3ccccc3CC1c1ccccc12 (stereo not shown) [Example 10, 10,11-Dihydro-5-methyl-12-(2-propyl)-10,5-(iminomethano)-5H-dibenzo[a,d]cycloheptene] |  |  | Percent of animals which survived at the dose indicated (NMDA-induced lethality) (NMDA-induced lethality; at 10 mg/kg): 100%
8 | CC12CN(CCc3ccccc3)C(Cc3ccccc31)c1ccccc12 (stereo not shown) [Example 9, 10,11-Dihydro-5-methyl-12-(2-phenylethyl)-10,5-(iminomethano)-5H-dibenzo[a,d]cycloheptene] |  |  | Percent of animals which survived at the dose indicated (NMDA-induced lethality) (NMDA-induced lethality; at 20 mg/kg): 17%
9 | CC12CN(CCc3ccccn3)C(Cc3ccccc31)c1ccccc12 (stereo not shown) [Example 2, 10,11-Dihydro-5-methyl-12-[2-(2-pyridinyl)ethyl]10,5-(iminomethano)-5H-dibenzo[a,d]cycloheptene] | 9.8 mg/kg | 67 mg/kg | IP/PO Ratio (NMDA-induced lethality): 0.57
10 | CC12CN(CCc3ccc4ccccc4n3)C(Cc3ccccc31)c1ccccc12 (stereo not shown) [Example 7, 10,11-Dihydro-5-methyl-12-[2-(2-quinolinyl)ethyl]-10,5-(iminomethano)-5H-dibenzo[a,d]cycloheptene] | > 20 mg/kg |  | 
11 | c1ccc(C2(N3CCCCC3)CCCCC2)cc1 [PCP, phencyclidine, reference compound] |  | 2.7 mg/kg | ED50 Inhibition of NMDA-Induced Lethality, I.P. (dose required to produce 50% survival rate) (NMDA-induced lethality; intraperitoneal injection): 1.9 mg/kg; Relative potency, antagonism of NMDA-induced lethality vs ataxia (in words) (NMDA-induced lethality): approximately equipotent; Protection against cell death in cerebral ischemia models [4]: protects against cell death in cerebral ischemia models
12 | CN1CC[C@@]23CCCC[C@@H]2[C@@H]1Cc1ccc(O)cc13 [Dextrorphan, dextrorphan, reference compound] |  | 29 mg/kg | Efficacy ratio for antagonizing NMDA-induced lethality over ataxia (in words) (NMDA-induced lethality; comparison with reference NMDA antagonists): essentially the same as that for dextromethorphan; ED50 Inhibition of NMDA-Induced Lethality, I.P. (dose required to produce 50% survival rate) (NMDA-induced lethality; intraperitoneal injection): 13 mg/kg
13 | Cc1cccc(CCN2CC3(C)c4ccccc4CC2c2ccccc23)n1 (stereo not shown) [Example 8, 10,11-Dihydro-5-methyl-12-[2-(6-methyl-2-pyridinyl)ethyl]-10,5-(iminomethano)-5H-dibenzo[a,d]cycloheptene] | 13 mg/kg | 68 mg/kg | 
14 | CN1CC2(C)c3ccccc3CC1c1ccccc12 (stereo not shown) [Example 1, 10,11-Dihydro-5,12-dimethyl-10,5-(iminomethano)-5H-dibenzo[a,d]cycloheptene] | 3.1 mg/kg | 13 mg/kg | 
15 | CC12CN(CCc3cnccn3)C(Cc3ccccc31)c1ccccc12 (stereo not shown) [Example 4, 10,11-Dihydro-5-methyl-12-(2-pyrazinylethyl)-10,5-(iminomethano)-5H-dibenzo-cycloheptene] | 12 mg/kg | 30 mg/kg | 
